Measurements published in PubChem BioAssay (NCI).
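Five concentrations, 48 hours, 96-well plates. GI50 is the concentration that inhibits growth by half. TGI: total growth inhibition.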

Columns and labels:
Experiment in all cases: DTP human tumour cell line panel, 48 h
786-0 renal = tested on: 786-0 renal
A498 renal = tested on: A498 renal
A549 NSCLC = tested on: A549 NSCLC
ACHN renal = tested on: ACHN renal
BT-549 breast = tested on: BT-549 breast
CAKI-1 renal = tested on: CAKI-1 renal
CCRF-CEM leukemia = tested on: CCRF-CEM leukemia
COLO 205 colon = tested on: COLO 205 colon
DU-145 prostate = tested on: DU-145 prostate
EKVX NSCLC = tested on: EKVX NSCLC
HCC-2998 colon = tested on: HCC-2998 colon
HCT-15 colon = tested on: HCT-15 colon
HL-60(TB) leukemia = tested on: HL-60(TB) leukemia
HOP-62 NSCLC = tested on: HOP-62 NSCLC
HOP-92 NSCLC = tested on: HOP-92 NSCLC
HS 578T breast = tested on: HS 578T breast
HT29 colon = tested on: HT29 colon
IGROV1 ovarian = tested on: IGROV1 ovarian
K-562 leukemia = tested on: K-562 leukemia
KM12 colon = tested on: KM12 colon
M14 melanoma = tested on: M14 melanoma
MALME-3M melanoma = tested on: MALME-3M melanoma
MCF7 breast = tested on: MCF7 breast
MDA-MB-231 breast = tested on: MDA-MB-231 breast
MDA-MB-435 = tested on: MDA-MB-435
MOLT-4 leukemia = tested on: MOLT-4 leukemia
NCI-H226 lung = tested on: NCI-H226 lung
NCI-H460 lung = tested on: NCI-H460 lung
NCI-H522 lung = tested on: NCI-H522 lung
NCI/ADR-RES ovarian = tested on: NCI/ADR-RES ovarian
OVCAR-3 ovarian = tested on: OVCAR-3 ovarian
OVCAR-4 ovarian = tested on: OVCAR-4 ovarian
OVCAR-5 ovarian = tested on: OVCAR-5 ovarian
OVCAR-8 ovarian = tested on: OVCAR-8 ovarian
PC-3 prostate = tested on: PC-3 prostate
RPMI-8226 leukemia = tested on: RPMI-8226 leukemia
RXF 393 renal = tested on: RXF 393 renal
SF-268 CNS = tested on: SF-268 CNS
SF-295 CNS = tested on: SF-295 CNS
SF-539 CNS = tested on: SF-539 CNS
SK-MEL-2 melanoma = tested on: SK-MEL-2 melanoma
SK-MEL-28 melanoma = tested on: SK-MEL-28 melanoma
SK-MEL-5 melanoma = tested on: SK-MEL-5 melanoma
SK-OV-3 ovarian = tested on: SK-OV-3 ovarian
SN12C renal = tested on: SN12C renal
SNB-19 CNS = tested on: SNB-19 CNS
SNB-75 CNS = tested on: SNB-75 CNS
SR leukemia = tested on: SR leukemia
SW-620 colon = tested on: SW-620 colon
T-47D breast = tested on: T-47D breast
TK-10 renal = tested on: TK-10 renal
U251 CNS = tested on: U251 CNS
UACC-257 melanoma = tested on: UACC-257 melanoma
UACC-62 melanoma = tested on: UACC-62 melanoma
UO-31 renal = tested on: UO-31 renal

CCNC(=O)Oc1ccc(/C(=C(/C)c2ccccc2)c2ccc(OCCN3CCCCCC3)cc2)cc1
GI50 (786-0 renal): 1.71 µM | TGI (786-0 renal): 3.46 µM | GI50 (A498 renal): 10.4 µM | TGI (A498 renal): 24.7 µM | GI50 (A549 NSCLC): 3.26 µM | TGI (A549 NSCLC): 13.1 µM | GI50 (ACHN renal): 3.37 µM | TGI (ACHN renal): 10.6 µM | GI50 (BT-549 breast): 1.71 µM | TGI (BT-549 breast): 3.38 µM | GI50 (CAKI-1 renal): 1.94 µM | TGI (CAKI-1 renal): 4.28 µM | GI50 (CCRF-CEM leukemia): 2.92 µM | TGI (CCRF-CEM leukemia): 28.7 µM | GI50 (COLO 205 colon): 1.56 µM | TGI (COLO 205 colon): 2.98 µM | GI50 (DU-145 prostate): 4.92 µM | TGI (DU-145 prostate): 20.3 µM | GI50 (EKVX NSCLC): 3.24 µM | TGI (EKVX NSCLC): 12.2 µM | GI50 (HCC-2998 colon): 2 µM | TGI (HCC-2998 colon): 3.89 µM | GI50 (HCT-15 colon): 1.53 µM | TGI (HCT-15 colon): 3.33 µM | GI50 (HL-60(TB) leukemia): 1.8 µM | TGI (HL-60(TB) leukemia): 6.15 µM | GI50 (HOP-62 NSCLC): 2.05 µM | TGI (HOP-62 NSCLC): 4.82 µM | GI50 (HOP-92 NSCLC): 1.23 µM | TGI (HOP-92 NSCLC): 4.62 µM | GI50 (HS 578T breast): 1.91 µM | TGI (HS 578T breast): 4.67 µM | GI50 (HT29 colon): 1.27 µM | TGI (HT29 colon): 3.27 µM | GI50 (IGROV1 ovarian): 3.64 µM | TGI (IGROV1 ovarian): 14.8 µM | GI50 (K-562 leukemia): 1.82 µM | TGI (K-562 leukemia): > 100 µM | GI50 (KM12 colon): 3 µM | TGI (KM12 colon): 11.1 µM | GI50 (M14 melanoma): 1.8 µM | TGI (M14 melanoma): 3.62 µM | GI50 (MALME-3M melanoma): 1.8 µM | TGI (MALME-3M melanoma): 3.47 µM | TGI (MCF7 breast): 2.6 µM | GI50 (MDA-MB-231 breast): 2.25 µM | TGI (MDA-MB-231 breast): 4.84 µM | GI50 (MDA-MB-435): 1.7 µM | TGI (MDA-MB-435): 3.29 µM | GI50 (MOLT-4 leukemia): 2.4 µM | TGI (MOLT-4 leukemia): 12.3 µM | GI50 (NCI-H226 lung): 2.97 µM | TGI (NCI-H226 lung): 10.8 µM | GI50 (NCI-H460 lung): 1.99 µM | TGI (NCI-H460 lung): 4.14 µM | GI50 (NCI-H522 lung): 1.8 µM | TGI (NCI-H522 lung): 3.75 µM | GI50 (NCI/ADR-RES ovarian): 2.22 µM | TGI (NCI/ADR-RES ovarian): 6.4 µM | GI50 (OVCAR-3 ovarian): 2.87 µM | TGI (OVCAR-3 ovarian): 8.2 µM | GI50 (OVCAR-4 ovarian): 3.05 µM | TGI (OVCAR-4 ovarian): 11.8 µM | GI50 (OVCAR-5 ovarian): 4.35 µM | TGI (OVCAR-5 ovarian): 17.8 µM | GI50 (OVCAR-8 ovarian): 3.07 µM | TGI (OVCAR-8 ovarian): 10.7 µM | GI50 (PC-3 prostate): 1.74 µM | TGI (PC-3 prostate): 4.19 µM | GI50 (RPMI-8226 leukemia): 1.95 µM | TGI (RPMI-8226 leukemia): 4.65 µM | GI50 (RXF 393 renal): 1.65 µM | TGI (RXF 393 renal): 3.27 µM | GI50 (SF-268 CNS): 4 µM | TGI (SF-268 CNS): 18.6 µM | GI50 (SF-295 CNS): 1.98 µM | TGI (SF-295 CNS): 3.94 µM | GI50 (SF-539 CNS): 1.74 µM | TGI (SF-539 CNS): 3.21 µM | GI50 (SK-MEL-2 melanoma): 2.48 µM | TGI (SK-MEL-2 melanoma): 6.76 µM | GI50 (SK-MEL-28 melanoma): 1.8 µM | TGI (SK-MEL-28 melanoma): 3.62 µM | GI50 (SK-MEL-5 melanoma): 1.74 µM | TGI (SK-MEL-5 melanoma): 3.16 µM | GI50 (SK-OV-3 ovarian): 2.74 µM | TGI (SK-OV-3 ovarian): 8.06 µM | GI50 (SN12C renal): 2.56 µM | TGI (SN12C renal): 8.36 µM | GI50 (SNB-19 CNS): 3.82 µM | TGI (SNB-19 CNS): 13.4 µM | GI50 (SNB-75 CNS): 1.85 µM | TGI (SNB-75 CNS): 4.36 µM | GI50 (SR leukemia): 2.04 µM | TGI (SR leukemia): 6.59 µM | GI50 (SW-620 colon): 2.11 µM | TGI (SW-620 colon): 5.15 µM | GI50 (T-47D breast): 1.15 µM | TGI (T-47D breast): 6.04 µM | GI50 (TK-10 renal): 5.83 µM | TGI (TK-10 renal): 19.9 µM | GI50 (U251 CNS): 1.58 µM | TGI (U251 CNS): 3.2 µM | GI50 (UACC-257 melanoma): 1.88 µM | TGI (UACC-257 melanoma): 3.87 µM | GI50 (UACC-62 melanoma): 1.91 µM | TGI (UACC-62 melanoma): 3.87 µM | GI50 (UO-31 renal): 1.52 µM | TGI (UO-31 renal): 4.43 µM
